Reference: PubChem BioAssay AID256 (DTP/NCI, 2004)
Several values for one entry are separate records, joined by “and”; a condition that tells them apart may be missing. Identical values can stand only once. Inconclusive results and toxic doses are left out. How the source made its calls: active means survival T/C of 150% or more; inactive means T/C below 125% in these data.

System: CD2F1 mice, L1210 leukemia ip, survival T/C
Assay: NCI In Vivo Anticancer Drug Screen. Data for tumor model L1210 Leukemia (intraperitoneal) in CD2F1 (CDF1) mice
Conditions: higher = longer survival
Summary of the method: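 In this screen, transplantable tumors were grown in mice given either the compound or its vehicle. Results were expressed as the treated measurement relative to the control measurement.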

[1] = endpoint: mean survival time, dose: 100.0 mg/kg/injection, schedule: Q01DX001 (ip), vehicle: saline with Tween-80
[2] = endpoint: mean survival time, dose: 200.0 mg/kg/injection, schedule: Q01DX001 (ip), vehicle: saline with Tween-80
[3] = endpoint: mean survival time, dose: 400.0 mg/kg/injection, schedule: Q01DX001 (ip), vehicle: saline with Tween-80
[4] = endpoint: mean survival time, dose: 100.0 mg/kg/injection, schedule: Q04DX003 (ip), vehicle: saline with Tween-80
[5] = endpoint: mean survival time, dose: 200.0 mg/kg/injection, schedule: Q04DX003 (ip), vehicle: saline with Tween-80
[6] = endpoint: mean survival time, dose: 400.0 mg/kg/injection, schedule: Q04DX003 (ip), vehicle: saline with Tween-80
[7] = endpoint: mean survival time, dose: 100.0 mg/kg/injection, schedule: Q04DX002 (ip), vehicle: saline with Tween-80
[8] = endpoint: mean survival time, dose: 200.0 mg/kg/injection, schedule: Q04DX002 (ip), vehicle: saline with Tween-80
[9] = endpoint: mean survival time, dose: 400.0 mg/kg/injection, schedule: Q04DX002 (ip), vehicle: saline with Tween-80
[10] = endpoint: mean survival time, dose: 50.0 mg/kg/injection, schedule: Q04DX002 (ip), vehicle: saline with Tween-80
[11] = endpoint: mean survival time, dose: 100.0 mg/kg/injection, schedule: Q04DX003 (ip), vehicle: saline
[12] = endpoint: mean survival time, dose: 200.0 mg/kg/injection, schedule: Q04DX003 (ip), vehicle: saline
[13] = endpoint: mean survival time, dose: 400.0 mg/kg/injection, schedule: Q04DX003 (ip), vehicle: saline
[14] = endpoint: mean survival time, dose: 100.0 mg/kg/injection, schedule: Q01DX009 (ip), vehicle: saline with Tween-80
[15] = endpoint: mean survival time, dose: 200.0 mg/kg/injection, schedule: Q01DX009 (ip), vehicle: saline with Tween-80
[16] = endpoint: mean survival time, dose: 400.0 mg/kg/injection, schedule: Q01DX009 (ip), vehicle: saline with Tween-80
[17] = endpoint: mean survival time, dose: 25.0 mg/kg/injection, schedule: Q01DX009 (ip), vehicle: saline
[18] = endpoint: mean survival time, dose: 100.0 mg/kg/injection, schedule: Q01DX009 (ip), vehicle: saline
[19] = endpoint: mean survival time, dose: 200.0 mg/kg/injection, schedule: Q01DX009 (ip), vehicle: saline

Measured: T/C

N#Cc1ncc(-c2ccccc2)nc1C#N
inactive: [1] 91 % of control | [2] 92 % of control | [3] 105 % of control

Cc1cc(N)c(C)c([N+](=O)[O-])c1
inactive: [4] 103 % of control | [5] 101 % of control | [6] 92 % of control

CCOC1(c2ccccc2)c2ccccc2C(C)(C)c2ccccc21
inactive: [4] 92 % of control | [6] 92 % of control

CCCCCCCCCCCCNC(=O)Nc1cccc(OC)c1
inactive: [7] 94 % of control | [8] 94 % of control | [9] 87 % of control

CC1(C(=O)O)CC2CCC1CC2 (stereo unspecified)
inactive: [10] 96 % of control | [7] 107 % of control | [8] 100 % of control | [9] 96 % of control

CCC(CN(C)C)C(=O)c1ccccc1 (stereo unspecified)
inactive: [11] 91 % of control | [8] 86 % of control | [12] 95 % of control

O=C(CCCN1CCC2(CC1)CNC(=O)N2c1ccccc1)c1ccc(F)cc1
inactive: [1] 101 % of control | [2] 98 % of control | [3] 91 % of control

OCCO
inactive: endpoint: mean survival time, dose: 100.0 mg/kg/injection, schedule: Q01DX009 (ip), vehicle: saline sonified 94 % of control and 101 % of control | [11] 103 % of control and 106 % of control | endpoint: mean survival time, dose: 200.0 mg/kg/injection, schedule: Q01DX009 (ip), vehicle: saline sonified 94 % of control and 101 % of control | [12] 104 % of control and 98 % of control | endpoint: mean survival time, dose: 400.0 mg/kg/injection, schedule: Q01DX009 (ip), vehicle: saline sonified 93 % of control and 104 % of control | [13] 104 % of control and 101 % of control | endpoint: median survival time, dose: 0.25 % in 0.5 ml injection vol, schedule: Q01DX009 (ip), vehicle: water 95 % of control | endpoint: median survival time, dose: 0.5 % in 0.5 ml injection vol, schedule: Q01DX009 (ip), vehicle: water 94 % of control | endpoint: median survival time, dose: 1.0 % in 0.5 ml injection vol, schedule: Q01DX009 (ip), vehicle: water 94 % of control | endpoint: median survival time, dose: 2.0 % in 0.5 ml injection vol, schedule: Q01DX009 (ip), vehicle: water 105 % of control

O=C(C[n+]1csc2ccccc21)c1ccccc1
inactive: [14] 106 % of control | [4] 97 % of control | [15] 92 % of control | [5] 106 % of control | [16] 87 % of control | [6] 109 % of control

CC(C)(C)CC1(C)NC(=O)NC1=O (stereo unspecified)
inactive: endpoint: mean survival time, dose: 100.0 mg/kg/injection, schedule: Q01DX001 (ip), vehicle: saline 100 % of control | endpoint: mean survival time, dose: 200.0 mg/kg/injection, schedule: Q01DX001 (ip), vehicle: saline 97 % of control | endpoint: mean survival time, dose: 400.0 mg/kg/injection, schedule: Q01DX001 (ip), vehicle: saline 100 % of control

CCCCCCCCCCSCC(N)C(=O)O (stereo unspecified)
inactive: endpoint: mean survival time, dose: 25.0 mg/kg/injection, schedule: Q01DX009 (ip), vehicle: other 88 % of control | endpoint: mean survival time, dose: 50.0 mg/kg/injection, schedule: Q01DX009 (ip), vehicle: other 88 % of control | endpoint: mean survival time, dose: 100.0 mg/kg/injection, schedule: Q01DX009 (ip), vehicle: other 94 % of control | endpoint: mean survival time, dose: 200.0 mg/kg/injection, schedule: Q01DX009 (ip), vehicle: other 94 % of control | endpoint: mean survival time, dose: 400.0 mg/kg/injection, schedule: Q01DX009 (ip), vehicle: other 97 % of control

CC(C)(C[P+](C)(c1ccccc1)c1ccccc1)c1ccccc1
inactive: [10] 98 % of control | [7] 102 % of control

C1=CC2C3C=CC(CC3)C2CC1 (stereo unspecified)
inactive: [14] 103 % of control | [15] 98 % of control

CC(=O)OCCOCCOCc1ccccc1
inactive: endpoint: mean survival time, dose: 100.0 mg/kg/injection, schedule: Q01DX001 (ip), vehicle: other 96 % of control | endpoint: mean survival time, dose: 200.0 mg/kg/injection, schedule: Q01DX001 (ip), vehicle: other 102 % of control | endpoint: mean survival time, dose: 400.0 mg/kg/injection, schedule: Q01DX001 (ip), vehicle: other 98 % of control

NC(CSC(c1ccccc1)(c1ccccc1)c1cccs1)C(=O)O (stereo unspecified)
inactive: [17] 92 % of control | [18] 86 % of control | [19] 95 % of control

CCCC(=O)O
inactive: endpoint: mean survival time, dose: 1.25 mg/kg/injection, schedule: Q01DX009 (ip), vehicle: saline 96 % of control | endpoint: mean survival time, dose: 12.5 mg/kg/injection, schedule: Q01DX009 (ip), vehicle: saline 98 % of control | [17] 96 % of control and 100 % of control | endpoint: mean survival time, dose: 50.0 mg/kg/injection, schedule: Q01DX009 (ip), vehicle: saline 96 % of control and 97 % of control | [18] 97 % of control and 100 % of control | [11] 102 % of control | [19] 95 % of control and 107 % of control | [12] 102 % of control | [13] 105 % of control

O=S(=O)(Nc1ccc2ccccc2c1)c1ccccc1
inactive: [14] 98 % of control | [11] 104 % of control | [15] 98 % of control | [12] 101 % of control | [16] 98 % of control | [13] 96 % of control

COC(C(N)=O)(c1ccccc1)C(F)(F)F (stereo unspecified)
inactive: [14] 101 % of control | [4] 102 % of control | [15] 105 % of control | [5] 100 % of control | [16] 94 % of control | [6] 89 % of control

NCC(O)c1ccc(O)c(O)c1 (stereo unspecified)
inactive: endpoint: mean survival time, dose: 0.5 mg/kg/injection, schedule: Q01DX009 (ip), vehicle: saline 98 % of control | endpoint: mean survival time, dose: 0.75 mg/kg/injection, schedule: Q01DX001 (ip), vehicle: saline 106 % of control | endpoint: mean survival time, dose: 1.0 mg/kg/injection, schedule: Q01DX009 (ip), vehicle: saline 109 % of control | endpoint: mean survival time, dose: 1.5 mg/kg/injection, schedule: Q01DX001 (ip), vehicle: saline 98 % of control | endpoint: mean survival time, dose: 2.0 mg/kg/injection, schedule: Q01DX009 (ip), vehicle: saline 98 % of control | endpoint: mean survival time, dose: 3.0 mg/kg/injection, schedule: Q01DX001 (ip), vehicle: saline 101 % of control | endpoint: mean survival time, dose: 4.0 mg/kg/injection, schedule: Q01DX009 (ip), vehicle: saline 113 % of control | endpoint: mean survival time, dose: 6.0 mg/kg/injection, schedule: Q01DX001 (ip), vehicle: saline 104 % of control | endpoint: mean survival time, dose: 8.0 mg/kg/injection, schedule: Q01DX009 (ip), vehicle: saline 100 % of control | endpoint: mean survival time, dose: 12.0 mg/kg/injection, schedule: Q01DX001 (ip), vehicle: saline 100 % of control

CN(CCC#N)c1ccc(C(=C2C=CC(=Nc3ccccc3)c3ccccc32)c2ccc(N(C)CCC#N)cc2)cc1
inactive: [7] 97 % of control | [8] 101 % of control

Cc1ccc(Nc2ccc(O)c3c2C(=O)c2c(O)ccc(Nc4ccc(C)cc4)c2C3=O)cc1
inactive: [14] 88 % of control | [15] 88 % of control | [16] 98 % of control

COc1cc(/C=N\NC(C)=O)cc(OC)c1OC
inactive: [4] 101 % of control | [5] 95 % of control

CCNCc1cc(Nc2nc(NC3CCC(N(C)C)CC3)c3ccccc3n2)ccc1OC (stereo unspecified)
inactive: endpoint: mean survival time, dose: 5.0 mg/kg/injection, schedule: Q01DX001 (ip), vehicle: saline 97 % of control | endpoint: mean survival time, dose: 5.0 mg/kg/injection, schedule: Q01DX009 (ip), vehicle: saline 96 % of control | endpoint: mean survival time, dose: 10.0 mg/kg/injection, schedule: Q01DX001 (ip), vehicle: saline 92 % of control | endpoint: mean survival time, dose: 10.0 mg/kg/injection, schedule: Q01DX009 (ip), vehicle: saline 96 % of control | endpoint: mean survival time, dose: 20.0 mg/kg/injection, schedule: Q01DX001 (ip), vehicle: saline 97 % of control | endpoint: mean survival time, dose: 20.0 mg/kg/injection, schedule: Q01DX009 (ip), vehicle: saline 107 % of control

Cc1cccc(=N)n1CCC(=O)O
inactive: [18] 95 % of control | [11] 112 % of control | [19] 98 % of control | [12] 94 % of control | endpoint: mean survival time, dose: 400.0 mg/kg/injection, schedule: Q01DX009 (ip), vehicle: saline 95 % of control | [13] 96 % of control

O=C1C=CC(=O)c2c(Cl)ccc(O)c21
inactive: endpoint: mean survival time, dose: 3.13 mg/kg/injection, schedule: Q04DX002 (ip), vehicle: other 102 % of control | endpoint: mean survival time, dose: 6.25 mg/kg/injection, schedule: Q04DX002 (ip), vehicle: other 102 % of control | endpoint: mean survival time, dose: 12.5 mg/kg/injection, schedule: Q04DX002 (ip), vehicle: other 96 % of control and 102 % of control

COc1ccc(-c2ccc(-c3ccc(S(=O)(=O)c4ccc(-c5ccc(-c6ccc(OC)cc6)cc5)c(N)c4)cc3N)cc2)cc1
inactive: [14] 110 % of control | [15] 89 % of control | [16] 89 % of control
